Measurements as given in ChEMBL document CHEMBL1201862, “PubChem BioAssay data set” (2004).
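Values below derive from 48-hour exposures of cells grown in 96-well plates, with endpoints linearly interpolated between the two concentrations bracketing the appropriate inhibition level. The concentration for 50% growth inhibition is given as GI50.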 Active and inactive are the calls of the source. No stated cut-off is given here; in the data, active = GI50 up to about 1.1 µM and inactive = higher.

What was measured:
Test in all cases: NCI anticancer screen, dose series, 48 h
[1] = system: A498
[2] = system: A549
[3] = system: ACHN
[4] = system: BT-549
[5] = system: CAKI-1
[6] = system: CCRF-CEM
[7] = system: COLO 205
[8] = system: DU-145
[9] = system: EKVX
[10] = system: HCT-116
[11] = system: HCT-15
[12] = system: HL-60
[13] = system: HOP-62
[14] = system: HOP-92
[15] = system: HT-29
[16] = system: Hs-578T
[17] = system: IGROV-1
[18] = system: K562
[19] = system: LOX IMVI
[20] = system: M14
[21] = system: MCF7
[22] = system: MDA-MB-231
[23] = system: MDA-MB-435
[24] = system: MOLT-4
[25] = system: Malme-3M
[26] = system: NCI-H226
[27] = system: NCI-H23
[28] = system: NCI-H460
[29] = system: NCI/ADR-RES
[30] = system: OVCAR-3
[31] = system: OVCAR-4
[32] = system: OVCAR-5
[33] = system: OVCAR-8
[34] = system: PC-3
[35] = system: RPMI-8226
[36] = system: RXF 393
[37] = system: SF-268
[38] = system: SF-295
[39] = system: SF-539
[40] = system: SK-MEL-28
[41] = system: SK-MEL-2
[42] = system: SK-MEL-5
[43] = system: SK-OV-3
[44] = system: SN12C
[45] = system: SNB-19
[46] = system: SR
[47] = system: SW-620
[48] = system: T47D
[49] = system: TK-10
[50] = system: U-251
[51] = system: UACC-257
[52] = system: UACC-62
[53] = system: UO-31
[54] = system: 786-0
[55] = system: HCC 2998
[56] = system: KM12
[57] = system: NCI-H522
[58] = system: SNB-75

SMILES: COC(=O)c1c(O)ccc2c1c1c(n2Cc2cccc(C)c2)C(=O)c2ccccc2C1
- GI50 [1]: 40.8 µM (inactive)
- GI50 [2]: 25.2 µM (inactive)
- GI50 [3]: 21.1 µM (inactive)
- GI50 [4]: 26.5 µM (inactive)
- GI50 [5]: 8.75 µM (inactive)
- GI50 [6]: 12.4 µM (inactive)
- GI50 [7]: 12.1 µM (inactive)
- GI50 [8]: 51.4 µM (inactive)
- GI50 [9]: 0.0931 µM (active)
- GI50 [10]: 7.85 µM (inactive)
- GI50 [11]: 19.7 µM
- GI50 [12]: > 75 µM (inactive)
- GI50 [13]: 10.4 µM (inactive)
- GI50 [14]: 42.6 µM (inactive)
- GI50 [15]: 10.3 µM (inactive)
- GI50 [16]: 23.2 µM (inactive)
- GI50 [17]: 42.7 µM (inactive)
- GI50 [18]: 29.4 µM (inactive)
- GI50 [19]: 19.8 µM (inactive)
- GI50 [20]: 14.5 µM (inactive)
- GI50 [21]: 27.9 µM (inactive)
- GI50 [22]: 13.6 µM (inactive)
- GI50 [23]: 11.4 µM (inactive)
- GI50 [24]: 17.1 µM (inactive)
- GI50 [25]: 13.5 µM (inactive)
- GI50 [26]: 19.7 µM (inactive)
- GI50 [27]: 23.7 µM (inactive)
- GI50 [28]: 19.4 µM (inactive)
- GI50 [29]: 15.5 µM (inactive)
- GI50 [30]: 12.6 µM (inactive)
- GI50 [31]: 0.126 µM (active)
- GI50 [32]: 22 µM (inactive)
- GI50 [33]: 26.2 µM (inactive)
- GI50 [34]: 9.1 µM (inactive)
- GI50 [35]: 12 µM (inactive)
- GI50 [36]: 11.9 µM (inactive)
- GI50 [37]: 28 µM (inactive)
- GI50 [38]: 24.9 µM (inactive)
- GI50 [39]: 17.1 µM (inactive)
- GI50 [40]: 0.295 µM (active)
- GI50 [41]: 45 µM (inactive)
- GI50 [42]: 29.2 µM (inactive)
- GI50 [43]: > 75 µM (inactive)
- GI50 [44]: 12.9 µM (inactive)
- GI50 [45]: > 75 µM (inactive)
- GI50 [46]: 13.7 µM (inactive)
- GI50 [47]: 26.2 µM (inactive)
- GI50 [48]: 0.348 µM (active)
- GI50 [49]: 22 µM (inactive)
- GI50 [50]: 14.5 µM (inactive)
- GI50 [51]: 46.1 µM (inactive)
- GI50 [52]: 32.6 µM (inactive)
- GI50 [53]: > 75 µM (inactive)

SMILES: CCCCCCc1cc2cc(-c3cn4ccsc4n3)c(=O)oc2cc1O
- GI50 [54]: > 56.9 µM (inactive)
- GI50 [1]: > 100 µM (inactive)
- GI50 [2]: > 100 µM (inactive)
- GI50 [3]: > 100 µM (inactive)
- GI50 [4]: > 100 µM (inactive)
- GI50 [5]: > 71.1 µM (inactive)
- GI50 [6]: > 68.5 µM (inactive)
- GI50 [7]: > 100 µM (inactive)
- GI50 [8]: > 79.1 µM (inactive)
- GI50 [9]: > 77.6 µM (inactive)
- GI50 [55]: > 100 µM (inactive)
- GI50 [10]: > 67.6 µM (inactive)
- GI50 [11]: > 90.4 µM
- GI50 [12]: > 100 µM (inactive)
- GI50 [13]: 64.9 µM (inactive)
- GI50 [14]: > 100 µM (inactive)
- GI50 [15]: > 100 µM (inactive)
- GI50 [16]: 20.4 µM (inactive)
- GI50 [17]: > 100 µM (inactive)
- GI50 [18]: > 75.2 µM (inactive)
- GI50 [56]: > 100 µM (inactive)
- GI50 [19]: > 100 µM (inactive)
- GI50 [21]: 99.5 µM (inactive)
- GI50 [22]: > 75 µM (inactive)
- GI50 [24]: > 100 µM (inactive)
- GI50 [26]: > 100 µM (inactive)
- GI50 [27]: > 82 µM (inactive)
- GI50 [28]: > 100 µM (inactive)
- GI50 [57]: 29.2 µM (inactive)
- GI50 [29]: > 100 µM (inactive)
- GI50 [30]: > 77.1 µM (inactive)
- GI50 [31]: > 79.6 µM (inactive)
- GI50 [32]: > 100 µM (inactive)
- GI50 [33]: > 53.3 µM (inactive)
- GI50 [34]: > 100 µM (inactive)
- GI50 [35]: 98.9 µM (inactive)
- GI50 [36]: 29.3 µM (inactive)
- GI50 [37]: > 58.2 µM (inactive)
- GI50 [38]: > 100 µM (inactive)
- GI50 [39]: 64.3 µM (inactive)
- GI50 [40]: > 25.4 µM (inactive)
- GI50 [41]: > 100 µM (inactive)
- GI50 [42]: > 30.9 µM (inactive)
- GI50 [43]: > 100 µM (inactive)
- GI50 [44]: > 100 µM (inactive)
- GI50 [45]: > 100 µM (inactive)
- GI50 [58]: 8.15 µM (inactive)
- GI50 [46]: > 100 µM (inactive)
- GI50 [47]: > 79.6 µM (inactive)
- GI50 [48]: > 100 µM (inactive)
- GI50 [49]: > 95.3 µM (inactive)
- GI50 [50]: 45.6 µM (inactive)
- GI50 [51]: > 24.5 µM (inactive)
- GI50 [52]: 19.1 µM (inactive)
- GI50 [53]: > 100 µM (inactive)

SMILES: COc1cc2nc(-c3cccs3)nc(Nc3cccc(Cl)c3)c2cc1OC
- GI50 [54]: 53.2 µM (inactive)
- GI50 [1]: > 100 µM (inactive)
- GI50 [2]: 50.9 µM (inactive)
- GI50 [3]: 78.5 µM (inactive)
- GI50 [4]: 59.2 µM (inactive)
- GI50 [5]: > 100 µM (inactive)
- GI50 [6]: 34 µM (inactive)
- GI50 [7]: > 100 µM (inactive)
- GI50 [8]: 90.6 µM (inactive)
- GI50 [9]: 88.9 µM (inactive)
- GI50 [10]: > 100 µM (inactive)
- GI50 [11]: 88.9 µM
- GI50 [12]: > 100 µM (inactive)
- GI50 [13]: 20.3 µM (inactive)
- GI50 [14]: 55 µM (inactive)
- GI50 [15]: > 100 µM (inactive)
- GI50 [16]: 31.6 µM (inactive)
- GI50 [17]: 61.1 µM (inactive)
- GI50 [18]: > 100 µM (inactive)
- GI50 [56]: 43.2 µM (inactive)
- GI50 [19]: 42.6 µM (inactive)
- GI50 [20]: 78.3 µM (inactive)
- GI50 [21]: 53.6 µM (inactive)
- GI50 [22]: > 100 µM (inactive)
- GI50 [23]: 61.9 µM (inactive)
- GI50 [24]: 61.8 µM (inactive)
- GI50 [25]: 27.7 µM (inactive)
- GI50 [26]: 50.6 µM (inactive)
- GI50 [27]: 54.6 µM (inactive)
- GI50 [28]: 42.8 µM (inactive)
- GI50 [57]: 64.6 µM (inactive)
- GI50 [29]: 48.2 µM (inactive)
- GI50 [30]: 52.8 µM (inactive)
- GI50 [31]: 28.8 µM (inactive)
- GI50 [32]: > 100 µM (inactive)
- GI50 [33]: 37.8 µM (inactive)
- GI50 [34]: 21.1 µM (inactive)
- GI50 [35]: 51.9 µM (inactive)
- GI50 [37]: 31.3 µM (inactive)
- GI50 [38]: 22.5 µM (inactive)
- GI50 [39]: 37.2 µM (inactive)
- GI50 [40]: 81.8 µM (inactive)
- GI50 [41]: > 100 µM (inactive)
- GI50 [42]: > 100 µM (inactive)
- GI50 [43]: 48.1 µM (inactive)
- GI50 [44]: > 100 µM (inactive)
- GI50 [45]: 35.2 µM (inactive)
- GI50 [58]: 36.3 µM (inactive)
- GI50 [46]: 91.6 µM (inactive)
- GI50 [47]: > 100 µM (inactive)
- GI50 [48]: 44.6 µM (inactive)
- GI50 [49]: 2.3 µM (inactive)
- GI50 [50]: 35.9 µM (inactive)
- GI50 [51]: > 100 µM (inactive)
- GI50 [52]: > 100 µM (inactive)
- GI50 [53]: > 100 µM (inactive)

SMILES: COc1ccc2[nH]c3c(O)c(-c4c(C)cc5c([nH]c6ccc(OC)cc65)c4O)c(C)cc3c2c1
- GI50 [54]: 4.91 µM (inactive)
- GI50 [2]: 4.05 µM (inactive)
- GI50 [3]: 4.66 µM (inactive)
- GI50 [4]: 4.62 µM (inactive)
- GI50 [8]: 4.43 µM (inactive)
- GI50 [9]: 4.09 µM (inactive)
- GI50 [55]: 3.7 µM (inactive)
- GI50 [10]: 4.22 µM (inactive)
- GI50 [13]: 4.83 µM (inactive)
- GI50 [14]: 4.51 µM (inactive)
- GI50 [16]: 6.28 µM (inactive)
- GI50 [17]: 4.34 µM (inactive)
- GI50 [56]: 4.24 µM (inactive)
- GI50 [19]: 4.38 µM (inactive)
- GI50 [20]: 4.13 µM (inactive)
- GI50 [22]: 5.74 µM (inactive)
- GI50 [26]: 4.38 µM (inactive)
- GI50 [28]: 3.98 µM (inactive)
- GI50 [57]: 4.93 µM (inactive)
- GI50 [29]: 4.24 µM (inactive)
- GI50 [30]: 4.35 µM (inactive)
- GI50 [31]: 3.88 µM (inactive)
- GI50 [33]: 4.5 µM (inactive)
- GI50 [34]: 4.27 µM (inactive)
- GI50 [36]: 4.84 µM (inactive)
- GI50 [37]: 4.48 µM (inactive)
- GI50 [39]: 4.86 µM (inactive)
- GI50 [40]: 5.55 µM (inactive)
- GI50 [41]: 5.41 µM (inactive)
- GI50 [44]: 4.43 µM (inactive)
- GI50 [45]: 4.69 µM (inactive)
- GI50 [58]: 3.85 µM (inactive)
- GI50 [47]: 4.41 µM (inactive)
- GI50 [48]: 9.86 µM (inactive)
- GI50 [49]: 4.45 µM (inactive)
- GI50 [50]: 4.31 µM (inactive)
- GI50 [51]: 4.24 µM (inactive)
